Our source for the IC50, inhibition and EC50 values is ChEMBL document CHEMBL1129382, “Synthesis of chiral 1-(2'-amino-2'-carboxyethyl)-1,4-dihydro-6,7-quinoxaline-2,3-diones: alpha-amino-3-hydroxy-5-methyl-4-isoxazolepropionate receptor agonists and antagonists” (J Med Chem, 1996).

As a reminder, the IC50 is the concentration needed to halve the response being measured. A word on the inhibition: it is the share of the control response that was lost under treatment. What is called EC50 is the concentration that produces a half-maximal response.

Experiment [1] has as its target Glutamate receptor ionotropic, AMPA (Rattus norvegicus, UniProt P19490+P19491+P19492+P19493). As to the kind of experiment: Compound (100 uM) was evaluated for inhibition of Ionotropic glutamate receptor AMPA by using [3H]- AMPA. It is filed as protein-complex assay.
Experiment [2] has as its target Glutamate receptor ionotropic, kainate. Description: Inhibition of [3H]- Kainate binding to Ionotropic glutamate receptor kainate in brain homogenates. It is filed as tissue-based, Rattus norvegicus.
Experiment [3] deals with Glutamate receptor ionotropic, kainate (Rattus norvegicus) (UniProt P22756+Q01812+P42260+P42264+Q63273). As to the kind of experiment: Displacement of [3H]- Kainate from Ionotropic glutamate receptor kainate of rat brain homogenates. It is filed as tissue-based. Further details: concentration or dose not given beside the values. Particulars: concentration not given here. Background: Displacement assays read how much labelled ligand stays bound in the presence of the test substance.

The target in experiment [4] is Glutamate receptor ionotropic, AMPA (Rattus norvegicus) (UniProt P19491+P19492+P19493+P19490). Description: Displacement of [3H]- AMPA from Ionotropic glutamate receptor of rat brain. The note with it: concentration not given here. Further details: concentration or dose not given beside the values.
The species entered for experiment [5] is Rattus norvegicus. As to the kind of experiment: Functional antagonist activity was determined by the ability to inhibit AMPA stimulated [3H]norepinephrine release from rat hippocampal slices. The note with it: Hippocampus.

In the case of `Cc1cc(N)c(NC(=O)[C@@H](CO)NC(=O)OC(C)(C)C)cc1C`, the figures for the IC50 in experiment [1] and in experiment [2] were 4 µM and 11 µM, respectively.
As to `N[C@H](Cn1c(=O)c(=O)[nH]c2ccccc21)C(=O)O` [listing 1 of 3 here], the inhibition stood at 5% in experiment [3] and 77% in experiment [4].
As for `Cc1cc2[nH]c(=O)c(=O)n(C[C@H](N)C(=O)O)c2cc1C`, the inhibition turned out to be 38% in experiment [3] and 66% in experiment [4]. The compound also had an IC50 in experiment [2] of 51 µM. Moreover, the EC50 in experiment [5] stood at 290 µM.
The compound `N[C@H](Cn1c(=O)c(=O)[nH]c2ccccc21)C(=O)O` [listing 2 of 3 here] gave a 50% inhibitory concentration (IC50) in experiment [2] of 38 µM.
Turning to `Cc1cc(N)c(NC[C@H](N)C(=O)O)cc1C`, the inhibition in experiment [3] came out at 7%; in experiment [4], 15%.
For the compound `Cc1cc2[nH]c(=O)c(=O)n(C[C@@H](N)C(=O)O)c2cc1C`, the inhibition was found to be 27% in experiment [3] and 62% in experiment [4]. Further, the IC50 in experiment [2] was found to be 22 µM. The 50% effective concentration (EC50) in experiment [5] was found to be 300 µM.
On to `Nc1ccccc1NC[C@@H](N)C(=O)O`, for which the inhibition in experiment [3] and in experiment [4] was 0% throughout.
As for `Cc1cc2[nH]c(=O)c(=O)n(C(=O)[C@H](N)CO)c2cc1C`, the inhibition in experiment [3] was found to be 15%; in experiment [4], 14%.
For the compound `Cc1cc2[nH]c(=O)c(=O)n(C(=O)[C@@H](CO)NC(=O)OC(C)(C)C)c2cc1C`, the results for the concentration for half-maximal inhibition (IC50) in experiment [1] and in experiment [2] were 12 µM and 11 µM, respectively.
`O=c1[nH]c2cc([N+](=O)[O-])c([N+](=O)[O-])cc2[nH]c1=O` [DNQX]: in experiment [2], the IC50 stood at 0.74 µM.
The same measure, in the same setting: with `N[C@H](Cn1c(=O)c(=O)[nH]c2ccccc21)C(=O)O` [listing 3 of 3 here] the figure was 0.69 µM.
As for `N[C@H]1COC1=O`, the inhibition in experiment [3] is 5%; in experiment [4], 11%.
For `Nc1ccccc1NC[C@H](N)C(=O)O` the same measures were 14% and 70%.
As for `N[C@@H](Cn1c(=O)c(=O)[nH]c2ccccc21)C(=O)O`, the inhibition came out at 27% in experiment [3] and 95% in experiment [4]. In experiment [2], the IC50 amounted to 0.23 µM.
Regarding `N[C@@H]1COC1=O`, the inhibition in experiment [3] is 4%; in experiment [4] it was 0%.
In the case of `Cc1cc2[nH]c(=O)n(C(=O)[C@@H](N)CO)c2cc1C`, the figures for the inhibition in experiment [3] and in experiment [4] were 13% and 21%, respectively.
With `Cc1cc2[nH]c(=O)c(=O)n(C[C@H](CO)NC(=O)OC(C)(C)C)c2cc1C`, the IC50 in experiment [1] turned out to be 47 µM; in experiment [2], 5 µM.
For `Cc1cc2[nH]c(=O)c(=O)n(C(=O)[C@@H](N)CO)c2cc1C`, the inhibition came to 16% in experiment [3] and 24% in experiment [4].
`Cc1cc(N)c(NC[C@@H](N)C(=O)O)cc1C`: the results for the inhibition in experiment [3] and in experiment [4] were 0% and 15%, respectively.
For `O=[N+]([O-])c1cc2nc(O)c(O)nc2cc1[N+](=O)[O-]` the same measures were 81% and 99%.
